These results are taken from ChEMBL document CHEMBL1201862, “PubChem BioAssay data set” (2004).

The target of one assay is T1, Estrogen receptor (Homo sapiens, UniProt P03372).
T1 sequence (P03372 whole entry): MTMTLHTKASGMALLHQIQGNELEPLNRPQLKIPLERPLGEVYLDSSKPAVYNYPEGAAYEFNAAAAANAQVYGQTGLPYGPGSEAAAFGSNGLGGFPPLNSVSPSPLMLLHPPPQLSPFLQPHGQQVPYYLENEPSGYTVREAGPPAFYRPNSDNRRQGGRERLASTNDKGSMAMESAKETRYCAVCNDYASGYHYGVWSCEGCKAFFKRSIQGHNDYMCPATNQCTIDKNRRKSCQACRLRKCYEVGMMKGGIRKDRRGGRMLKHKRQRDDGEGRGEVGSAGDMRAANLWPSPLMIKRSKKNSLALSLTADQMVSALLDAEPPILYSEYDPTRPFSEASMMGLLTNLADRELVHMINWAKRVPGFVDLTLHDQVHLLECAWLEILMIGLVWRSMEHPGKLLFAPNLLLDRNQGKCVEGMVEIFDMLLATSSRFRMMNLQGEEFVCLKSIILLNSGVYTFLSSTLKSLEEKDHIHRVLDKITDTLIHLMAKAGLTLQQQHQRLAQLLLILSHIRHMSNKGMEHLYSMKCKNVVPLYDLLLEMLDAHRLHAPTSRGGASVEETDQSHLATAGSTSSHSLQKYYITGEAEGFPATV
Nature of the assay: ERα coactivator recruitment enhancers – biochemical, TR-FRET, ERα LBD, dose response (AID 737). On the technique in general: In TR-FRET formats the signal depends on donor and acceptor labels being close together.

A short description of assay [1]: toxicity toward HepG2 liver cells – cell-based, plate reader, cherry-pick, antagonist series, cytotoxicity control, dose response (AID 743416). The class given is functional.
Assay [2] in a line: blockers of bursicon-stimulated LGR2 cAMP reporter – cell-based, HEK293, CRE-luciferase reporter, cherry pick, set 2, dose response (AID 743343).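 Further: transfected cells were stimulated with diluted bursicon conditioned medium after compound addition.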 In kind it is functional. (In general: Reporter assays use an easily measured gene product as a stand-in for the process of interest.)
Assay [3] in a line: blockade of melanocortin 4 receptor signaling – cell-based, plate reader, cherry pick, counter-screen for LGR2 antagonist project, dose response (AID 743444).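 Further: transfected HEK 293 cells stimulated with alpha-MSH peptide; potency of inhibitors of the alpha-MSH evoked signal.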 In kind it is functional. In general terms: The purpose of a counterscreen is to sort out artefacts and off-target activity.
The nature of assay [4]: viability loss in HEK293 cells – cell-based, plate reader, cherry-picked samples, cytotoxicity control, dose response (AID 743446). In kind it is functional.
In assay [5] the target is T2, Sphingosine 1-phosphate receptor 2 (Homo sapiens, UniProt O95136). Nature of the assay: Dose Response Cell Based Assay for Agonists of the S1P2 Receptor of Purchased Analogues. [Related pubchem assays: 729, 843, 854, 736 ]. The class given is functional.
For assay [6], the target named is T2, Sphingosine 1-phosphate receptor 2. Kind of assay: Dose Response Cell Based Assay for Agonists of the S1P2 Receptor. [Related pubchem assays: 729, 736, 843 ]. In kind it is functional.
Another assay concerns HeLa. Kind of assay: Cytotoxicity counterscreen assay for transcriptional activators of heat shock protein 70 (Hsp70). [Related pubchem assays: 1203, 1252 ]. In kind it is functional. The settings on record: Homo sapiens.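 Further: cells exposed to compound for 16 hours before readout.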
The nature of assay [7]: viability of PTEN-deleted HCT116 cells – cell-based, HCT116 PTEN knockout, dose response (AID 1047).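 Further: HCT116 colon tumor cells with PTEN knocked out; cells exposed to compound for 60 hours before readout; potency for loss of cell viability measured by luminescence.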 The class given is functional.
Assay [8] in a line: viability of HCT116 lacking mutant beta-catenin – cell-based, human colon tumor, dose response (AID 1045).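 Further: HCT116 colon tumor cells with beta catenin knocked out; cells exposed to compound for 60 hours.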 In kind it is functional.
Assay [9] deals with T3, Replicative DNA helicase DnaB (Mycobacterium tuberculosis, UniProt P9WMR3).
T3 sequence (P9WMR3 whole entry): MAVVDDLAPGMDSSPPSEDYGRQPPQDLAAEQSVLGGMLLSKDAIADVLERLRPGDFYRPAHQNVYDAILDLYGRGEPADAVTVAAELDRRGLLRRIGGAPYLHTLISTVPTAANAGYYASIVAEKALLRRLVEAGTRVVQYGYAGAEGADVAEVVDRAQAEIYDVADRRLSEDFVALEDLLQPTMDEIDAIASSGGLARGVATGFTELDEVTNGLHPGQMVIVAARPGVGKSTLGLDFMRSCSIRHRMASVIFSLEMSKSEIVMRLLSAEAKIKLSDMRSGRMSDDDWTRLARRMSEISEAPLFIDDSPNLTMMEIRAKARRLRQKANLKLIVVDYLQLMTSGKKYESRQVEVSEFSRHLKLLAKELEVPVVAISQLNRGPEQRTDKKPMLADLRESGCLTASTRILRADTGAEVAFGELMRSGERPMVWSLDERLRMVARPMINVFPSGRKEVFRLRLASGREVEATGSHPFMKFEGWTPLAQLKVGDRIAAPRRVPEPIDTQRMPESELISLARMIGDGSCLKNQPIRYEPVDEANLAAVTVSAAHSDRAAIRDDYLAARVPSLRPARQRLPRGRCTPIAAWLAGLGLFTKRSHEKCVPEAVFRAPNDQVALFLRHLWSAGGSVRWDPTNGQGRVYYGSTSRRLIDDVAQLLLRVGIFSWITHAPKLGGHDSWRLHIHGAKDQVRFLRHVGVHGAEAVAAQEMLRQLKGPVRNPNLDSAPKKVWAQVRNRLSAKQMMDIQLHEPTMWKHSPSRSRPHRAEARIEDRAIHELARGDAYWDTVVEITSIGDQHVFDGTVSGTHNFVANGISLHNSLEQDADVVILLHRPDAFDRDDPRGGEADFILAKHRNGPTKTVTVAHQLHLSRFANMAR
Nature of the assay: DnaB intein splicing inhibitors, dose response, biochemical, cell-free fluorescence (AID 449749). The class given is functional.

Assay [10] deals with T4, High affinity choline transporter 1 (Homo sapiens, UniProt Q9GZV3).
T4 sequence (Q9GZV3 whole entry): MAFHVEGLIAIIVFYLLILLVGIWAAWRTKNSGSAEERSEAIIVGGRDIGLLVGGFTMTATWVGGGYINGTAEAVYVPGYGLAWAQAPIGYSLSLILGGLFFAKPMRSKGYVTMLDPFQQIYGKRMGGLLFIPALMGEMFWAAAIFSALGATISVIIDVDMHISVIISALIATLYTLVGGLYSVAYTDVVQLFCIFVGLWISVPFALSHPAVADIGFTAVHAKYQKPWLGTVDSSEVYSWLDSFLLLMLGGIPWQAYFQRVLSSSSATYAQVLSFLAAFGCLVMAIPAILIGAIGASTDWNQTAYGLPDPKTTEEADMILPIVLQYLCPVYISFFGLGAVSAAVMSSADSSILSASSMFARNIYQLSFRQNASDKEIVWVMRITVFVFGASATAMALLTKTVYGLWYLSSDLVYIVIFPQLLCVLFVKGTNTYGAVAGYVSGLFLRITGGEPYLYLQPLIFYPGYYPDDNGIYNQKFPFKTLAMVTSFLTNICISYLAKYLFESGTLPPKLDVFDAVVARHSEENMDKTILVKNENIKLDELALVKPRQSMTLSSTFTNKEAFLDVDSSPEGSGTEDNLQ
Nature of the assay: human choline transporter blockers, potency – cell-based, 5-point CRC, membrane potential dye, dose response (AID 504840). In kind it is functional.

The next assay addresses T5, Protein RecA (Mycobacterium tuberculosis, UniProt P9WHJ3).
T5 sequence (P9WHJ3 whole entry): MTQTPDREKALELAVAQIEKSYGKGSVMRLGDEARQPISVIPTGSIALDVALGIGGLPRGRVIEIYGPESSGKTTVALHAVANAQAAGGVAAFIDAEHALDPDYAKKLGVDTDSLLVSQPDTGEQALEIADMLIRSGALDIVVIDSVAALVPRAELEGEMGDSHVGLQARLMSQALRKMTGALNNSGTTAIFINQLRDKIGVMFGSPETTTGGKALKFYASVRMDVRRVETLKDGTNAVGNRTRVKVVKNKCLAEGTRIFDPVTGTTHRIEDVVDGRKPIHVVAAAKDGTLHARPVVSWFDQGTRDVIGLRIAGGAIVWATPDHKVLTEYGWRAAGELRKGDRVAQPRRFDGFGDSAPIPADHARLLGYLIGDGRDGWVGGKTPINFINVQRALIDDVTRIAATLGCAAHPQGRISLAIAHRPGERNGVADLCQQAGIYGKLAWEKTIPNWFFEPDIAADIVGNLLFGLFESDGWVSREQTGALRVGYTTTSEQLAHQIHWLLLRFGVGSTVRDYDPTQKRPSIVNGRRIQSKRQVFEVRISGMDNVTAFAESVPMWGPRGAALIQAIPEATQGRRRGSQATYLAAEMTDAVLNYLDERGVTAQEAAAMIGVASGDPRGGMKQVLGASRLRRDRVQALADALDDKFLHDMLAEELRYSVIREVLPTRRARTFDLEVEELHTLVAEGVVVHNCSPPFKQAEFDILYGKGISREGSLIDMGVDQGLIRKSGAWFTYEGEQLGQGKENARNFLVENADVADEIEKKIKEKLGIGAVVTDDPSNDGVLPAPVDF
Kind of assay: Fluorescence Cell-Free Homogeneous Dose Retest to Identify Inhibitors of RecA-Intein Splicing Activity. [Related pubchem assays (depositor defined):AID2097, AID2223, AID489010, AID492950]. The class given is functional.

Assay [11] in a line: antiviral protection against BTV-induced cell death – arbovirus, BSR cells, confirmation (AID 1250).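 Further: protection from viral cytopathic effect measured as cell viability by ATP luminescence.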 In kind it is functional.
Assay [12] in a line: A High Throughput Confirmatory Assay used to Identify Novel Compounds that Inhibit Mycobacterium Tuberculosis in the absence of Glycerol. The class given is functional.
The next assay has as its target T6, Leucine aminopeptidase (Plasmodium falciparum 3D7, UniProt Q8IL11).
T6 sequence (Q8IL11 whole entry): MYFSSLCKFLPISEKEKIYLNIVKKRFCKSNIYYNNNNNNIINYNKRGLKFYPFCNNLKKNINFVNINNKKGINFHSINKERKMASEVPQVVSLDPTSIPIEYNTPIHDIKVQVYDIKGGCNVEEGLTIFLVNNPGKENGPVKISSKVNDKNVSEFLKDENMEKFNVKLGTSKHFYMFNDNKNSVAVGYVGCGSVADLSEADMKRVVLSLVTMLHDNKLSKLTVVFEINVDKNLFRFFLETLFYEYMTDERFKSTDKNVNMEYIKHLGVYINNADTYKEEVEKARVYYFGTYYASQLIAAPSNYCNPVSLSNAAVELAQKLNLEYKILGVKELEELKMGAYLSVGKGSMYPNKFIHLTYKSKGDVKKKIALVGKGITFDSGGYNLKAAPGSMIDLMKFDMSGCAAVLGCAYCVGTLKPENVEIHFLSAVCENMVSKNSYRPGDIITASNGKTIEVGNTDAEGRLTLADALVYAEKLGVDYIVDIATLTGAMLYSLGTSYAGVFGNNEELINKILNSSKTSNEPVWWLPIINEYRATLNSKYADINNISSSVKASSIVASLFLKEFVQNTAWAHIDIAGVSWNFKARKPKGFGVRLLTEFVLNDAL
Kind of assay: P. falciparum M17LAP inhibitors, primary screen, biochemical, fluorogenic H-Leu-NHMec substrate, 1536-well (AID 1619). In kind it is functional.

The target in a further assay is Aspartyl aminopeptidase (Plasmodium falciparum 3D7, UniProt Q8I2J3). Nature of the assay: Counterscreen for inhibitors of M1 and M17 aminopeptidases: QFRET-based biochemical high throughput dose response assay for inhibitors of the Plasmodium falciparum M18 Aspartyl Aminopeptidase (PFM18AAP). [Related PubChem assays: 1619 (Screening assay (M17LAP inhibitors).), 1445 (Screening assay (M1AAP inhibitors).)].

A further assay has as its target Procathepsin L (Homo sapiens, UniProt P07711). Nature of the assay: CTSL1 protease inhibition – biochemical, QFRET, 1536-well, counter-screen for M1/M17 aminopeptidase inhibitor project, dose response (AID 2214).
Another assay has as its target T7, Bcl-2-like protein 10 (Homo sapiens, UniProt Q9HD36).
T7 sequence (Q9HD36 whole entry): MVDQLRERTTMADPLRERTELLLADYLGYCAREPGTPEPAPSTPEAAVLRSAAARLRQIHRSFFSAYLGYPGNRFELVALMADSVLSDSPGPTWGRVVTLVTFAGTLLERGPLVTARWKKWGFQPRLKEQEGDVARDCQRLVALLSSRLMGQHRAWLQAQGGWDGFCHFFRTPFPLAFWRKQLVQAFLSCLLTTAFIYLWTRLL
Kind of assay: Concentration-response of Bcl-B inhibitors by biochemical FP with TR3 (AID 1243). The class given is functional.

Active and inactive are the calls of the source. A value given as a limit tells only on which side of the number the result lay.

T2 sequence (O95136 whole entry): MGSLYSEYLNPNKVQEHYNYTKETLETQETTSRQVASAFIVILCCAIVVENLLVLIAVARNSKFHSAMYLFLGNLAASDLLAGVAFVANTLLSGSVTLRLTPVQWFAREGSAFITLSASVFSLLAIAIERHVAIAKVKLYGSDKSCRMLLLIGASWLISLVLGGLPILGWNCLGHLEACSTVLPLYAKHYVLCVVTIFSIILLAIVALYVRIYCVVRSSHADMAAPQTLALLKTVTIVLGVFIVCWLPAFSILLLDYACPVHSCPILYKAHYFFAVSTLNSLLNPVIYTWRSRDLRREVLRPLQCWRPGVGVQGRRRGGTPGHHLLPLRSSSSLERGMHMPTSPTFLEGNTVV
Sequence of Aspartyl aminopeptidase (Q8I2J3 whole entry): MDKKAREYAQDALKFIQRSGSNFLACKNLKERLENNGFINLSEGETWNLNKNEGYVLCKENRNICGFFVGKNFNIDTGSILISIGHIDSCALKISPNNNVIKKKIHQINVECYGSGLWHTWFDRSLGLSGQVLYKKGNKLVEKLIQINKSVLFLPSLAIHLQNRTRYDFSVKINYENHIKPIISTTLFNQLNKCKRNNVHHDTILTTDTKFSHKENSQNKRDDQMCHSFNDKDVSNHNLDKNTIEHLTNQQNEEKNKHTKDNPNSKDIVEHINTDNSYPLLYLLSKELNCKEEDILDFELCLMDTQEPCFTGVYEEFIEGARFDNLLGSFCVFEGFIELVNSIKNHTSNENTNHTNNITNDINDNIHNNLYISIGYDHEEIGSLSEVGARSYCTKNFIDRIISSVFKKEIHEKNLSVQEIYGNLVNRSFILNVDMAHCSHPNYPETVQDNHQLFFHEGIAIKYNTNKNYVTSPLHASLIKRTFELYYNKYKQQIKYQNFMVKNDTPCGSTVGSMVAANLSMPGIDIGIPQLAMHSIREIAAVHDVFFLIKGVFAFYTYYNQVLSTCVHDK
Sequence of Procathepsin L (P07711 whole entry): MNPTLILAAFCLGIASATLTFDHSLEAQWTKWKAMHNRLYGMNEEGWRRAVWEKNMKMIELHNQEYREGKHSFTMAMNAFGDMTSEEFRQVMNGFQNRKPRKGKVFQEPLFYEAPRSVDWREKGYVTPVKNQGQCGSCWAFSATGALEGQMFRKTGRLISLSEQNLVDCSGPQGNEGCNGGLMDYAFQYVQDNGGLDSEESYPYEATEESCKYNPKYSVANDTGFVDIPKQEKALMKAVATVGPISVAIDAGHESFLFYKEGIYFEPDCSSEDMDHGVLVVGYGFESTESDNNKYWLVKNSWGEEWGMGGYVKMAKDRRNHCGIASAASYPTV

Turning to `C1COCCO1.O=C(Nc1nc(-c2ccc(S(=O)(=O)N3CCOCC3)cc2)cs1)c1ccccc1`, the EC50 at Estrogen receptor is 15.1 µM (active). The AC50 in assay [1] is 36.7 µM (active); in assay [2], 42 µM (active); in [3], 44.3 µM (active); in [4] it was > 52 µM (inactive).

For the compound `Cc1cc(C(=O)CN2C(=O)CCC2=O)c(C)n1Cc1ccccc1`, the half-maximal effective concentration (EC50) was 1.2 µM (active) in [5] and 2.85 µM (active) in [6].

In the case of `Cc1cc(C(=O)Cn2ncc(Cl)c(Cl)c2=O)c(C)n1CC(F)(F)F`, the CC50 in the assay with HeLa is on record as > 11 µM (not active). In addition, the figures for the EC50 (in [7]; in [8]; at Protein RecA) were 3.03 µM (active), 2.06 µM (active) and 2.72 µM (active), respectively. Also, in [9], the AC50 was 3.01 µM (active). Further, the IC50 in assay [10] was 20.9 µM (active).

For the compound `CN(Cc1ccccc1NC(=O)c1ccc(S(=O)(=O)N(C)C)cc1)C1CCCCC1`, the IC50 in assay [11] was 29.9 µM (active).

Regarding `Cc1nnc(SCc2ccccc2Cl)n(N)c1=O`, the IC50 in assay [12] is > 100 µM (active).

As for `Cc1ccc(SCC2=NNC(=O)C2)cc1`, the IC50 at Leucine aminopeptidase was 1.77 µM (active); against Aspartyl aminopeptidase, > 73.5 µM (not active); against Procathepsin L, > 59.6 µM (not active). Besides, in assay [9], the AC50 was 3.72 µM (active). For the same compound, on Protein RecA, the EC50 is 1.01 µM (active).

Take `O=C(O)c1cccc(-c2ccc(/C=N/Nc3ccc([N+](=O)[O-])cn3)o2)c1`: at Bcl-2-like protein 10, the EC50 is 9.64 µM (active).

Usually EC50 stands for the concentration needed to bring the measured effect to its halfway point. The term AC50 denotes the midpoint of the concentration-response curve, whichever way the signal moves. The term CC50 denotes the concentration at which the toxic effect on the cells reaches its halfway point. A high value points to better tolerance by the cells. As usually defined, the IC50 is the midpoint of a concentration-inhibition curve.
